Laboratory results taken from ChEMBL document CHEMBL1131779, “Synthesis and evaluation of potential complement inhibitory semisynthetic analogs of oleanolic acid” (Bioorg Med Chem Lett, 1999).

Key:
Homo sapiens [1] = species on record: Homo sapiens; assay: The compound was tested in vitro for its inhibition of the classical pathway activation of human complement; type: functional
[2] = The compound was tested for its apoptotic activity; no DNA migration observed; type: functional
SK-MEL [3] = assay: Compound was tested for its cytotoxicity against human malignant melanoma cell line SK-MEL; type: functional, cell-based
[4] = In vitro therapeutic index was determined. (Therapeutic index = IC50 cytotoxicity/IC50 complement inhibition); type: functional
[5] = The compound was tested for its apoptotic activity; No DNA migration observed; type: functional
Homo sapiens [6] = species on record: Homo sapiens; assay: The compound was tested in vitro for its inhibition of the classical pathway activation of human complement; Not active; type: functional
SK-MEL [7] = assay: Compound was tested for its cytotoxicity against human malignant melanoma cell line SK-MEL; NA = Not active; type: functional, cell-based

Row | SMILES | IC50 (Homo sapiens [1]) | IC50 (Homo sapiens [6]) | Apoptotic activity [2] | IC50 (SK-MEL [3]) | TI [4] | Apoptotic activity [5] | IC50 (SK-MEL [7])
1 | CC1(C)CC[C@]2(C(=O)O)CC[C@]3(C)C(=CC(=O)C4[C@@]5(C)CC[C@H](O)C(C)(C)C5CC[C@]43C)[C@@H]2C1 (some centres undefined) | 234 µM |  |  | 131 µM | 0.56 |  | 
2 | CC1(C)CC[C@]2(C(=O)NCCCCCCCCCCC(=O)O)CC[C@]3(C)C(=CCC4[C@@]5(C)CC[C@H](O)C(C)(C)C5CC[C@]43C)[C@@H]2C1 (some centres undefined) |  | Not Active |  |  |  | No DNA migration observed | Not Active
3 | CC1(C)CC[C@]2(C(=O)O)CC[C@]3(C)C(=CC[C@@H]4[C@@]5(C)CCC(=O)C(C)(C)[C@@H]5CC[C@]43C)[C@@H]2C1 [OLEANONIC ACID] |  | Not Active |  | 31 µM |  |  | 
4 | CC1(C)CC[C@]2(C(=O)O)CC[C@]3(C)C(=CCC4[C@@]5(C)CC[C@H](OC(=O)CC(C)(C)C(=O)O)C(C)(C)C5CC[C@]43C)[C@@H]2C1 (some centres undefined) | 108 µM |  |  | 77 µM | 0.71 |  | 
5 | CC(=O)O[C@H]1CC[C@@]2(C)C(CC[C@]3(C)C2C(=O)C=C2[C@@H]4CC(C)(C)CC[C@]4(C(=O)O)CC[C@]23C)C1(C)C (some centres undefined) |  | Not Active |  |  |  | No DNA migration observed | Not Active
6 | CC1(C)CC[C@]2(C(=O)O)CC[C@]3(C)C(=CCC4[C@@]5(C)CC[C@H](OC(=O)COCC(=O)O)C(C)(C)C5CC[C@]43C)[C@@H]2C1 (some centres undefined) | 31.4 µM |  |  | 93 µM | 2.96 |  | 
7 | C=C(C)[C@@H]1CC[C@]2(C(=O)O)CC[C@]3(C)[C@H](CC[C@@H]4[C@@]5(C)CC[C@H](O)C(C)(C)[C@@H]5CC[C@]43C)[C@@H]12 [BETULINIC ACID] | 577 µM |  |  | 35 µM | 0.06 |  | 
8 | CC(C)(CC(=O)O)CC(=O)O[C@H]1CC[C@@]2(C)C(CC[C@]3(C)C2CC=C2[C@@H]4CC(C)(C)CC[C@]4(C(=O)O)CC[C@]23C)C1(C)C (some centres undefined) | 103 µM |  |  | 86 µM | 0.83 |  | 

Now from value to compound, other results behind:

Row | IC50 (Homo sapiens [1]) | IC50 (Homo sapiens [6]) | SMILES | Apoptotic activity [2] | IC50 (SK-MEL [3]) | TI [4] | Apoptotic activity [5] | IC50 (SK-MEL [7])
9 | 72.3 µM |  | CC1(C)CC[C@]2(C(=O)O)CC[C@]3(C)C(=CC[C@@H]4[C@@]5(C)CC[C@H](O)C(C)(C)[C@@H]5CC[C@]43C)[C@@H]2C1 [OLEANOLIC_ACID] | no DNA migration observed | 112 µM | 1.55 |  | 
10 |  | Not Active | COC(=O)[C@]12CCC(C)(C)C[C@H]1C1=CC[C@@H]3[C@@]4(C)CC[C@H](O)C(C)(C)[C@@H]4CC[C@@]3(C)[C@]1(C)CC2 [METHYL OLEANOLATE] |  | 103 µM |  | No DNA migration observed | 
11 |  | Not Active | CC(=O)O[C@H]1CC[C@]2(C)[C@H]3CC=C4[C@@H]5CC(C)(C)CC[C@]5(C(=O)O)CC[C@@]4(C)[C@]3(C)CC[C@H]2C1(C)C [ACETYL OLEANOLIC ACID] | no DNA migration observed |  |  |  | Not Active
12 |  | Not Active | CC(=O)O[C@H]1CC[C@@]2(C)C(CC[C@]3(C)C2CC=C2[C@@H]4CC(C)(C)CC[C@]4(C(N)=O)CC[C@]23C)C1(C)C (some centres undefined) |  | 70 µM |  | No DNA migration observed | 
13 | 31.8 µM |  | CC1(C)CC[C@]2(C(=O)NCCCCC(=O)O)CC[C@]3(C)C(=CCC4[C@@]5(C)CC[C@H](O)C(C)(C)C5CC[C@]43C)[C@@H]2C1 (some centres undefined) |  | 127 µM | 3.99 |  | 
14 |  | Not Active | CC1(C)CC[C@]2(CO)CC[C@]3(C)C(=CCC4[C@@]5(C)CC[C@H](O)C(C)(C)C5CC[C@]43C)[C@@H]2C1 (some centres undefined) |  | 105 µM |  | No DNA migration observed | 
15 | 146 µM |  | CC1(C)CC[C@]2(C(=O)NCC(=O)O)CC[C@]3(C)C(=CC[C@@H]4[C@@]5(C)CC[C@H](O)C(C)(C)[C@@H]5CC[C@]43C)[C@@H]2C1 |  | 115 µM | 0.78 | No DNA migration observed | 
16 |  | Not Active | CC1(C)CC[C@]2(C(N)=O)CC[C@]3(C)C(=CCC4[C@@]5(C)CC[C@H](O)C(C)(C)C5CC[C@]43C)[C@@H]2C1 (some centres undefined) |  |  |  | No DNA migration observed | Not Active
